Data on one compound can be found in patent US8013153B2, “Substituted pyrimidine kinase inhibitors” (Janssen Pharmaceutica, N.V., priority 2006, dated 2011).

Where “and” joins values, the source holds several entries; their conditions need not be identical. Equal entries are not always repeated. Entries after “also recorded” stand apart in the source; their conditions may differ.

By IC50 is commonly meant the concentration that gives 50% inhibition. Low values mean inhibition by little substance, high ones a need for much substance.

For one experiment, the target named is C-Raf (Homo sapiens, UniProt P04049). The experiment is described as follows: RAF Kinase Screening Assay (C-Raf). The settings on record: Compound 50 tested at 30 μM.
Chain of C-Raf (P04049 whole entry, species assumed): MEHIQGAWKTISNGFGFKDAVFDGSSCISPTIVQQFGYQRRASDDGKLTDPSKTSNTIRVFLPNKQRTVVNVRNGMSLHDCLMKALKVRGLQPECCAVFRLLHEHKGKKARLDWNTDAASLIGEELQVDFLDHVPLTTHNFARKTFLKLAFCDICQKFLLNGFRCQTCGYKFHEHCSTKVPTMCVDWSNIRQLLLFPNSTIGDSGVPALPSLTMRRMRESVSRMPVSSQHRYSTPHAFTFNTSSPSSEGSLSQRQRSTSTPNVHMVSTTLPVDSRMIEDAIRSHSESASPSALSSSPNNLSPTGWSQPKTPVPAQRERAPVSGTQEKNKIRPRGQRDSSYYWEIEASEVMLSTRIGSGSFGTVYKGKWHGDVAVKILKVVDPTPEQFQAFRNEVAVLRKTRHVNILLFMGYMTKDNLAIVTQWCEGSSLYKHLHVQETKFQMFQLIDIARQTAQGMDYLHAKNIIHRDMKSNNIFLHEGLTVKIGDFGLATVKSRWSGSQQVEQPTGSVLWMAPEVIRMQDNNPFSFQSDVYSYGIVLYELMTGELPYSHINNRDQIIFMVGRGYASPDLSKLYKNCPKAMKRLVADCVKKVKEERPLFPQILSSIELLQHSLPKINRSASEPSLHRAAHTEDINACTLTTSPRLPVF
The test system of experiment [1] is spontaneous intestinal adenoma formation. Briefly: C57BL/6J-APC Min-mouse model of human adenomatous polyposis coli. It counts as in vivo, C57BL/6J-Apc min mice. The following applies: 100 mg/kg orally once-daily; vehicle 47±7, baseline 23±4. The protocol: The ability of Compound 50 to inhibit angiogenesis and tumor growth was tested in a spontaneous tumor model. the pre-cancerous polyp formation in the mouse model of human intestinal tumorigenesis.
Transgenic C57BL/6J-Apc min mice heterozygous for a dominant nonsense Apc mutation are highly susceptible to spontaneous intestinal adenoma formation (homozygous mice are not viable). One hundred percent of these animals will develop polyps by 12 weeks of age. This model is widely used for studying prevention of intestinal adenoma formation and is well described in the literature (Yang K, Edelmann W, Fan K, et. al. A mouse model of human familial adenomatous polyposis. J Exp Zool. 1997 15; 277(3):245-54).
Female C57BL/6J-Apc^Min mice (Jackson Laboratory, MN), 5 weeks of age, were housed (up to 10 mice per group) for a minimum of one week. Animals were then sorted into treatment groups based on body weight such that the mean body weight for the animals in each group was approximately the same. Small cohorts of animals (n=6) were sacrificed at day 1, before treatment to get a baseline number of polyps (mean polyp number at beginning of study). […]
Animals in the treated group (n=10) were dosed daily with Compound 50 at 100 mg/kg orally q.d. for one week. […] The intestine of each mouse was excised, perfused, stained (0.01% Trypan Blue) and polyps were counted under 10× magnification.

For experiment [2], the system named is HCT116 human colorectal carcinoma. Briefly: In vivo inhibition of tumor growth, HCT116 model. On the set-up: species or system athymic nude mice. The settings on record: 10 mg/kg daily, oral. An excerpt:
(§1) Female Nu/Nu˜nuBR athymic nude mice (obtained from Charles River Laboratories), at the age of 5-6 weeks were feed water and an irradiated standard rodent diet ad libitum, and housed in specific pathogen-free conditions, according to the guidelines of the American Association for Accreditation of Lab Animal Care (AALAC).
(§2) Mice were implanted subcutaneously in the right hind flank with the various tumor cell suspensions in HBSS containing 10% FBS: A431 human epidermoid carcinoma (4×10^6 cells/mouse), HCT116 human colorectal carcinoma (4×10^6 cells/mouse) and A375 human skin melanoma (2×10^6 cells/mouse). […]
(§3) The tumors were allowed to establish growth for 10 to 14 days. Tumor size was measured every 3 days. […]
(§4) Tumor measurements and body weights were recorded individually (2×/week) during the treatment period of the experiment. Tumors were measured using a digital caliper. Data was recorded/calculated using Study Director software (StudyLog Systems, Inc.) and graphs were created in GraphPad Prizm.
(§5) The volume of each tumor in an animal was calculated according to the formula: (D×d^2)/2, where the diameters were determined from two orthogonal measurements on each tumor. The mean tumor volume was determined by averaging all tumor volumes in each group. The mean body weight was determined by averaging all body weights in each group. […]

The next experiment has as its target B-Raf (Homo sapiens, UniProt P15056). The experiment is described as follows: RAF Kinase Screening Assay (B-Raf). The settings on record: Compound 50 tested at 30 μM.
Experiment [3] has as its system HeLa cervical adenocarcinoma. The experiment is described as follows: Inhibition of in vitro cell proliferation (HeLa).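 Note: cells exposed to compound for 24 h, then labelled 24 h with methyl 14C-thymidine, with uptake into DNA counted by scintillation against DMSO-only control wells.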 It counts as cell-based, human. The following applies: Homo sapiens, 14C-thymidine incorporation. In general terms: Uptake of a labelled nucleoside into DNA is a usual measure of proliferation.
Experiment [4] has as its system VEGF-induced angiogenesis. Briefly: Mouse Corneal Micropocket Assay. It counts as in vivo, C57BL/6J mice. An excerpt:
This method has been described in detail (see Kenyon B, Voest E E, Chen C C, Flynn E, Folkman J and D'Amato R J, A model of angiogenesis in the mouse cornea, Invest. Opthalmol. Vis. Sci., 1996, 37:1625-1632; and, LaMontagne K, Littlewood-E A, Schnell C, O'Reilly T, Wyder L, Sanchez T, Probst B, Butler J, Wood A, Liau G, Billy E, Theuer A, Hla T and Wood J, Antagonism of sphingosine-1-phosphate receptors by FTY720 inhibits angiogenesis and tumor vascularization, Cancer Res., 2006, 66:221-31) and is an in vivo functional assay that provides an important link between biochemical and cellular inhibition (i.e., VEGFR-2 autophosphorylation and VEGF-dependent migration) and functional biological end points (i.e., VEGF-induced angiogenesis in vivo).
Pellets containing the slow-release polymer Hydron® and sucralfate with 180 ng rHuVEGF165 were implanted into the cornea of female C57BL/6J mice. Daily oral treatment with either Compound 50 (10 mg/kg or 100 mg/kg) or vehicle (0.5% methylcellulose) was started 24 hours later. […] After sacrifice on day 6, the vascular response was quantified using a linear reticule through the slit lamp. Inhibition was determined by the formula: Inhibition=[(0.2)(π)(new blood vessel length)(clock hours of neovessels)]
The circumferential zone was measured as clock hours with a 360° reticule (where 30° of arc equals 1 clock hour). […]

Experiment [5] concerns A431 human epidermoid carcinoma. The experiment is described as follows: In vivo inhibition of tumor growth, A431 model. On the set-up: species or system athymic nude mice. The following applies: 10 mg/kg daily, oral.
Text: as §1, §2, §3, §4, §5

Chain of B-Raf (P15056 whole entry, species assumed): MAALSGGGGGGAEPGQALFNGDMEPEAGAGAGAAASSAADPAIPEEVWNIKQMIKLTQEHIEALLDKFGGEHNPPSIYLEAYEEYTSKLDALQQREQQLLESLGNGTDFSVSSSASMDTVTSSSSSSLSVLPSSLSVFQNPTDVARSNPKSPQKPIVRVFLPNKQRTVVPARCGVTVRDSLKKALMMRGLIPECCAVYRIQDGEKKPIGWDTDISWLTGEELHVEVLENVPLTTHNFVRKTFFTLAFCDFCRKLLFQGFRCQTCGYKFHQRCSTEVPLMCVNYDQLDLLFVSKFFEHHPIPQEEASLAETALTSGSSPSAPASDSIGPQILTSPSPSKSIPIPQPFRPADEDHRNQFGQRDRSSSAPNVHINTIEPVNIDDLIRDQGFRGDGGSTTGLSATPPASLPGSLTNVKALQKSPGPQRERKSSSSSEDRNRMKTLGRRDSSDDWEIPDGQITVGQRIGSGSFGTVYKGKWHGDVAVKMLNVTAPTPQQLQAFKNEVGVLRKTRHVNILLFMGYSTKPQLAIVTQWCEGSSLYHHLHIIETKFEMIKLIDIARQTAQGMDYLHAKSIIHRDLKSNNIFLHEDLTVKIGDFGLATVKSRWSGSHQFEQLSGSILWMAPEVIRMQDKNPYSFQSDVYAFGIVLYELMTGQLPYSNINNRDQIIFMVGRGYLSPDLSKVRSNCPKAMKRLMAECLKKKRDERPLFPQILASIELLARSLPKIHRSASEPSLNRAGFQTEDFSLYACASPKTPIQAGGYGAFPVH

With `CCNC(=O)Nc1ccc(Oc2ncnc(N)c2/C=N/OC)cc1Cl` [Cpd 50, 1-{4-[6-amino-5-(methoxyimino-methyl)-pyrimidin-4-yloxy]-2-chloro-phenyl}-3-ethyl-urea], on C-Raf, the “activity against C-Raf” value is reported as “no activity; also recorded: not active”. Moreover, the polyp counts in experiment [1] was 27±7. Also, the “inhibition of tumor growth” value in experiment [2] and in experiment [5] was under 50% each time. In addition, on B-Raf, the “activity against B-Raf” value is reported as “no activity; also recorded: not active”. In addition, in experiment [3], the IC50 was 3.57 µM. Further, the “% Inhibition of blood vessel growth compared to the vehicle group” value in experiment [4] (10 mg/Kg daily oral) was 15% and 15 ± 2%; in experiment [4] (100 mg/Kg daily oral), 83% and 83 ± 6%.
